# Data: patent US10675239B2, “Vegetable extract to prevent and treat hair loss” (GIULIANI S.P.A., priority 2017, dated 2020)
# Columns and labels:
# Type in all cases: cell-based, mouse
# [1] = tested on: ROS production in the BALB3T3 murine fibroblast cell line; test: ROS intracellular production (DCFH-DA assay)-BALB3T3; conditions: 25 μM, 16 h pretreatment, then 1 mM H2O2 90 min; ctr + H2O2 = 100
# Description: Study of the Effects of Galeopsis segetum and Galeopsis tetrahit and on ROS Production Using a DCFH-DA-BALB3T3 Assay
# The ROS production in the BALB3T3 murine fibroblast cell line was determined by spectrophotometer using the 2,7-dichlorofluorescein-diacetate (DCFH-DA) assay, as described by Tobi et al. (Tobi et al., 2000).
# DCFH-DA is a non-fluorescent compound in lipophilic form, able to spread through the cell membrane. Once inside the cell, it is deacetylated by the intracellular esterases to reduced 2,7-dichlorofluorescein (DCFH), which is also non-fluorescent. DCFH, unable to cross again the cell membrane, eventually ends up accumulating in the cells (Curtin et al., 2002). The intracellular ROS reaction leads to the oxidation of 2.7-dichlorofluorescein (DCF) DCFH, a highly fluorescent compound. This fluorescence intensity can be detected with a fluorimeter, allowing estimating the amount of ROS produced in the cells.
# […]
# Subsequently, the lysates were transferred in a 96-well black plate and the fluorescence of DCF was read spectrofluorimetrically using a FluoroskanAscent FL Microplate Fluorescence Reader (Thermo Fisher ScientificInc., Waltham, Mass., USA), with excitation and emission wavelengths of 485 and 538 nm respectively. […]
# [2] = tested on: BALB3T3 murine fibroblasts stressed with H2O2; test: MTT with induced oxidative stress-BALB3T3; conditions: 50 μM, pretreatment, then 1 mM H2O2 90 min; non-stressed ctr = 100, Ctr + H2O2 = 58.43
# Description: MTT with Induced Oxidative Stress-BALB3T3
# BALB3T3 mouse fibroblasts are one of the validated models for studies of oxidative stress in vitro (Subirade et al., 1995; Kutuk et al., 2004).
# Studies conducted in 2005 by Rajapakse and coworkers (2005) highlighted the possibility of exploiting a highly used and versatile method such as that of the MTT assay for the in vitro study antioxidant activity of active compounds. Specifically, through this method it is possible to study the protective effects of these compounds on cells subsequently subjected to oxidative stress. The induction of oxidative stress is carried out by incubation with hydrogen peroxide, an agent that induces the production of oxidative damage in the cells through ROS formation. The possible protective effects can be determined through the assessment of cell viability after oxidative stress of the pre-treated/pre-exposed cells to the active compounds to be tested, in comparison with cells subjected to the same oxidative stress. […]
# Once the oxidation stress induction phase was completed, the cell viability of the various samples was evaluated, according to the method described in point 4.1.2 (assay with MTT).
# The data were expressed as a percentage of cell viability compared to non-stressed control cells (ctr), according to the following formula: % cell viability/ctr=(Sample Abs/ctr Abs)*100 […]
# [3] = tested on: 5 alpha-reductase isoform 2 (SRD5A2); test: Gene expression of isoform 2 of 5 alpha-reductase (SRD5A2) in BALB3T3 cells by qRT-PCR; conditions: 0.05 mg/mL, 24 h, relative expression 2^-ΔΔCt vs β-actin, Ctr = 1
# Description: Effects of Galeopsis segetum and Galeopsis tetrahit Study on the Activity of 5 Alpha-Reductase (Isoform 2)-BALB3T3
# The gene expression of the isoform 2 of 5 alpha-reductase (SRD5A2) in BALB3T3 cells was evaluated by relative quantitative RT-PCR (quantitative reverse transcription polymerase chain reaction-qRT-PCR).
# This analysis has foreseen 3 sequential phases: • Total RNA extraction; • Reverse transcription in cDNA; • qRT-PCR.
# BALB3T3 murine fibroblasts were seeded in 12-well plates at a density of 0.5*10^6 cells/well and incubated until about 80% confluence was achieved.
# Subsequently, the cells were incubated for 24 hours with Galeopsis segetum and Galeopsis tetrahit (vegetable biomass and dry hydro-alcoholic sample) at the following concentrations: 20-50 and 100 μg/ml. […]
# At the end of the incubation with the active compounds of interest, cells were washed with PBS (1×) and finally subjected to the RNA extraction procedure. At the end of the extraction, using a spectrophotometer (Jenway UV/VIS MOD: 6715, BS-6715B0), the concentrations in μg/ml of total RNA extracted at the wavelength of 260 nm were calculated. Finally, the integrity of RNA (2 μg/ml) by electrophoretic run on 1% agarose gel was evaluated. […]
# The extracted and quantified RNA was diluted to a concentration of 2 μg/ml and retro-transcripted in cDNA. […]
# Assuming a 100% amplification efficiency, the 2^−ΔΔCt was calculated.
SMILES,% ROS [1] [%],% cells viability [2] [%],mRNA SERD5A2 [3]
Cc1c(C)c2c(c(C)c1O)CC[C@@](C)(CCC[C@H](C)CCC[C@H](C)CCCC(C)C)O2 [α-tocopherol],39.67,78.37,
CC(C)(C)NC(=O)[C@H]1CC[C@H]2[C@@H]3CC[C@H]4NC(=O)C=C[C@]4(C)[C@H]3CC[C@]12C [finasteride],,,0.31
